# pEC50, pKi: −log10 of the molar value.
# Experiments:
# [1] = target: T1, Histamine H4 receptor (Homo sapiens, UniProt Q9H3N8); assay: Displacement of [3H]histamine from human recombinant histamine H4 receptor
# [2] = target: T1, Histamine H4 receptor; assay: Agonist activity at human recombinant histamine H4 receptor expressed in SK-N-MC cells assessed as effect on forskolin-stimulated cAMP-mediated reporter gene activity; type: functional, cell-based
# [3] = target: T1, Histamine H4 receptor; assay: Antagonist activity at human recombinant histamine H4 receptor expressed in SK-N-MC cells assessed as inhibition of forskolin-stimulated cAMP-mediated reporter gene activity; type: functional, cell-based; details: read-out: pA2 (converted)
Structure (SMILES),pKi [1],pEC50 [2],Kb [3] [nM]
CN1CCN(c2ccnc(-c3ccsc3)c2)CC1,7.68,–,–
CN[C@@H]1CCN(c2ccnc(-c3ccsc3)c2)C1,6.67,–,–
CN1CCN(c2ccnc(N3CCCCC3)c2)CC1,6.85,–,–
CN[C@@H]1CCN(c2ccnc(N3CCCCC3)c2)C1,7.01,–,–
CCCCNc1cc(N2CCN(C)CC2)ccn1,6.75,–,–
CN1CCN(c2ccnc(NC3CCCC3)c2)CC1,7.80,–,–
CN[C@@H]1CCN(c2ccnc(NC3CC4CCC3C4)c2)C1 (stereo partly specified),–,< 5.00,6.31
CN[C@H]1CCN(c2ccnc(NC3CC4CCC3C4)c2)C1 (stereo partly specified),8.22,< 5.00,–
CC(C)Nc1nccc(N2CCN(C)CC2)n1,6.93,6.95,–
CC(C)CNc1nccc(N2CCN(C)CC2)n1,–,7.08,–
CCCCNc1nccc(N2CCN(C)CC2)n1,7.26,7.04,–
CN1CCN(c2ccnc(NC3CCCC3)n2)CC1,7.20,7.12,–
CN1CCN(c2ccnc(NC3CC4CCC3C4)n2)CC1 (stereo unspecified),–,7.70,–
CC(C)CNc1cc(N2CCN(C)CC2)cnn1,5.00,–,–
CN[C@@H]1CCN(c2cnnc(NC3CCCC3)c2)C1,8.22,–,10
CN[C@H]1CCN(c2cnnc(NC3CCCC3)c2)C1,6.62,–,–
CN1CCN(c2cnnc(NC3CC4CCC3C4)c2)CC1 (stereo unspecified),6.44,–,–
CC(C)c1cc(N2CC[C@@H](N)C2)nc(N)n1 [JNJ-39758979],7.92,–,–

# Now from value to compound:
pKi [1],pEC50 [2],Kb [3] [nM],Structure (SMILES)
8.10,7.60,–,CN[C@@H]1CCN(c2ccnc(NC(C)C)n2)C1
–,5.50,–,CN[C@@H]1CCN(c2ccnc(NC(C)C)c2)C1
8.15,7.32,–,CCCCNc1cc(N2CC[C@@H](NC)C2)ccn1
6.96,–,–,CCCCNc1cc(N2CC[C@H](NC)C2)ccn1
6.93,–,–,CN[C@H]1CCN(c2ccnc(NC(C)C)n2)C1
8.52,8.40,–,CCCCNc1nccc(N2CC[C@@H](NC)C2)n1
9.10,5.50,79.4,CN[C@@H]1CCN(c2ccnc(NC3CC4CCC3C4)n2)C1 (stereo partly specified)
8.10,< 5.00,–,CN[C@H]1CCN(c2ccnc(NC3CC4CCC3C4)n2)C1 (stereo partly specified)
7.26,5.50,–,CN[C@@H]1CCN(c2cnnc(NCC(C)C)c2)C1
6.41,–,–,CN[C@H]1CCN(c2cnnc(NCC(C)C)c2)C1

# Reference: ChEMBL document CHEMBL3393002, “Diaminopyrimidines, diaminopyridines and diaminopyridazines as histamine H4 receptor modulators” (Bioorg Med Chem Lett, 2015)
